Measurements published in US5587402A, “Regression of mammalian leukemia cell tumors” (priority 1995, dated 1996).
Entries after “also recorded” stand apart in the source; their conditions may differ.

Experiments:
[1] = system: isoprenylation of 21-26 kDa proteins in M600B cells; test: Protein isoprenylation in M600B human mammary epithelial cells; assay type: cell-based
[2] = system: NIH3T3 cells; test: Inhibition of NIH3T3 cell growth; assay type: cell-based, mouse; conditions: FIG. 3
Method: (§1) NIH3T3 (mouse embryo) cells were obtained from the American Type Culture Collection and were grown in Dulbecco's modified Eagle's medium supplemented with 10% calf serum. M600B immortalized human mammary epithelial cells (Stampfer, M. R., 1985, J. Tissue Culture Methods 9: 107-115) were obtained from Dr. Martha Stampfer and were grown in supplemented HCDB 170 medium (Hammond, et al. (1984) Proc. Natl. Acad. Sci U.S.A. 81: 5435-5439), as described previously (Stampfer, et al. (1985) Proc. Natl. Acad. Sci U.S.A. 82: 2394-2398; Eldridge, et al. (1989) Cancer Res. 49: 4326-4331).
(§2) All cells were maintained in 100-mm dishes at 37° C. in a humidified 5% CO2 atmosphere. Viable cells were distinguished from nonviable cells by counting azure II/methylene blue-stained colonies 10 days after the cells were plated at a density of 100 cells per dish. Trypan blue exclusion was measured by incubating cells for 1 minute with one drop of trypan blue per 10 ml of cells. Viable (colorless) and nonviable (blue) cells were then counted on a hemocytometer.
(§3) Additionally, growth of HT29 (human colon adenocarcinoma) cells was inhibited by 80% by 1 mM perillyl alcohol.

[3] = system: M600B cells; test: Inhibition of M600B cell growth; assay type: cell-based, human; conditions: FIG. 4
Method: as §1, §2, §3

[4] = Toxicity of dietary perillyl alcohol in rats; assay type: in vivo, Wistar-Furth female rats
Method: We used Wistar-Furth female rats for in vivo studies. Wistar-Furth female rats were obtained from Harlan Sprague-Dawley, Inc., (Madison, Wis.). All rats, arriving at 43-48 days of age, were housed at four rats per cage in wire-bottom metal cages and all were maintained with a light/dark cycle of 12 hours. Rates were provided Teklad Lab blox chow and acidified water ad libitum.
In the pair-feeding study, a group of 70 mammals was treated with DMBA. Beginning four weeks post-carcinogen administration, mammals were weighed and palpated weekly. Upon palpation of the first mammary tumor(s) (diameter≥3 mm), mammals were randomly assigned to control or 2.5% (w/w) perillyl alcohol diet and pair-fed.
Perillyl alcohol (>96% pure by GC analysis, Aldrich, Milwaukee, Wis.) and Teklad 4% mouse/rat diet meal were thoroughly mixed and stored at -20° C. Fresh diets were make every 7-10 days. All mammals were provided fresh diet daily to minimize evaporation of the monoterpenes. For pair-feeding, the quantity of diet consumed by the monoterpene-fed mammals was measured every 24 hours and the assigned partner was pair-fed accordingly.

[5] = system: p210-transformed FDC-P1 cells; test: Proliferation of p210 bcr/abl-transformed FDC-P1 myeloid cells; assay type: cell-based, murine
Method: (The p210 bcr/abl oncogene is carried on a helper-free retrovirus referred to as "p210.") FDC-P1 myeloid cells are an immature cell line from myeloid lineage derived from mouse bone marrow (Dexter, TM, J. Exp. Med. 152: 1036-1047, 1980).

[6] = system: p210 transformed FDC-P1 cells (F-p210.1); test: Cell cycle distribution of p210-transformed FDC-P1 cells; assay type: cell-based, murine; conditions: for Cell cycle distribution (% > GO /G1): untreated control 53; for arrest at the G0/G1 stage: 500 μM
Method: Table 3 tabulates the effect of P-OH on cell cycle distribution of nontransformed and p210 transformed FDC-P1 cells.
^1 Cells were plated at 2.5 × 10^5 per ml in duplicate well
of a 24well plate in the presence of 10% WEHI3-conditioned media as a
source of IL3 and with the indicated concentration of P--OH. After 24
hours, the cells were fixed in ethanol, permeabilized and stained with
propidium iodide, then analyzed for DNA content by flow cytometry.
^2 FDCP1 = nontransformed cells, Fp210.1 = 210transformed FDCP1 cells

[7] = system: bcr/abl-induced leukemia in mice; test: bcr/abl-induced leukemia in mice fed perillyl alcohol diet; assay type: in vivo, mouse; conditions: diet containing 2% perillyl alcohol
Excerpt: Experiments were done in which the non-malignant mouse bone marrow cell line, FDC-P1, was transformed with a retrovirus engineered to express the p210 bcr/abl oncogene. As described above, the bcr/abl oncogene plays a major role in the development of human Philadelphia chromosome (Ph) positive leukemias. Therefore, this mouse system represents a model of Ph^+ human leukemia. Injection of syngeneic animals with the bcr/abl transformed FDC-P1 cells induces lethal hematopoietic malignancy in which all animals had died within 30 days post-injection (absent perillyl alcohol).
Animals were fed either a control diet or a diet containing 2% perillyl alcohol and were challenged with either 3×10^5 or 3×10^6 bcr/abl-transformed cells. All animals on the control diet died by day 26.

[8] = Pharmacologic analysis of serum concentration in rats; assay type: in vivo; conditions: rats fed 2% perillyl alcohol
Excerpt: In light of these observations, and our belief that p21^ras may be a target for perillyl alcohol activity in bcr/abl-transformed cells, it may be relevant that cellular ras activity is required for proliferating cells to pass through G1 (Dobrowski, et al., Mol. Cell Biol. 14: 5441-49, 1994).

C=C(C)[C@@H]1CC=C(CO)CC1 [perillyl alcohol]
isoprenylation of 21-26 kDa proteins ([1]; 3 mM, FIG. 2): inhibited significantly | inhibition of isoprenylation ([1]; all cell types examined): inhibition of isoprenylation | inhibition of cell growth [2]: significantly inhibited cell growth in a dose-dependent manner | inhibition of cell growth [3]: significantly inhibited cell growth in a dose-dependent manner | maximum dose tolerated (diet) ([4]; diet, data not shown): 2.5% | body weight ([4]; perillyl alcohol-fed versus control, FIG. 8): initial weight loss followed by weight gain and a plateau; also recorded: did not achieve weights similar to controls | growth inhibition, transformed versus nontransformed cells ([5]; 100-800 μM, FIG. 9B): significantly more inhibitory for the growth of p210-transformed FDC-P1 cells compared to nontransformed FDC-P1 cells | growth-inhibitory curve with added IL-3 ([5]; IL-3 added): significantly shifted upward | inhibition at 400 µM ([5]; Mus musculus, FDC-P1, read-out: inhibition of growth): > 80% | reversion of autonomously growing malignant cells ([5]; conclusion from in vitro results): reverts autonomously growing malignant cells to a factor-dependent, apoptosis-sensitive state | Cell cycle distribution (% > GO /G1) ([6]; 100 μM P--OH, 24 hours): 53% | apoptosis ([6]; 500 μM P--OH, 24 hours): Significant apoptosis | Cell cycle distribution (% > GO /G1) ([6]; 500 μM P--OH, 24 hours): 16% | arrest at the G0/G1 stage ([6]; 24 hours): almost completely arrested at the G0 /G1 stage | arrest at the G0/G1 stage ([6]; 24 hours, listed as P--OH): entirely in the G0 /G1 stage of the cell cycle | morphological changes ([6]; up to 500 μM): morphological changes suggestive of apoptotic cell death | animals surviving longer than control animals ([7]; 3×10^5 or 3×10^6 cells, controls all died by day 26): about 20% | diet acceptance ([7]; most mice): most mice resisted the perillyl alcohol diet | serum concentration relative to the in vitro effective concentration range [8]: within the effective concentration range observed in these in vitro experiments
